The IC50 is the concentration that gives 50% inhibition.

Data on two molecules can be found in US8372847B2, “Pyrazinone modulator of corticotropin-releasing factor receptor activity” (Bristol-Myers Squibb Company, priority 2008, dated 2013).

SMILES strings stand for the structures. Bounds are passed on as bounds.

One test deals with T1, human CRF1 receptors (Homo sapiens, UniProt P34998).
T1 construct: the native CRF1 receptors present on the human retinoblastoma cell line Y79; endogenous in cells; host or cells: Y79 human retinoblastoma cells
T1 sequence (P34998 24-415): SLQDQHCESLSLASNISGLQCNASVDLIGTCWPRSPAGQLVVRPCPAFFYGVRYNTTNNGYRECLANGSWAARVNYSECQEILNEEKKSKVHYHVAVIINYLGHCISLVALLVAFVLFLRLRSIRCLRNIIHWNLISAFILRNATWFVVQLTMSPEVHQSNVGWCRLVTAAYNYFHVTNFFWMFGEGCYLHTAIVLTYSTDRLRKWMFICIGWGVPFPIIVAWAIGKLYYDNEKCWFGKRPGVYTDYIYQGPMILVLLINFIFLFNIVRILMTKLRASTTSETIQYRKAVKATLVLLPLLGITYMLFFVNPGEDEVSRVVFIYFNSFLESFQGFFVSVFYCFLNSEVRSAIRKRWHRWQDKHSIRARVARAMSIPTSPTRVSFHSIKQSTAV
Nature of the test: hCRF1 binding assay, 125I-o-CRF competition, Y79 cell membranes. The note with it: native human CRF1 receptors, Y79 retinoblastoma cells; n=3; read-out: IC50, inhibition of 125I-o-CRF binding to Y79 membrane. As to the method:
hCRF1 Binding Assay. Membranes were prepared for binding using Y79 cells, a human retinoblastoma line that natively expresses human CRF1 receptors [Hauger, R., et al., Journal of Neurochemistry 68: 2308-2316, (1997)]. Briefly, cells were grown and collected then the pellet homogenized in assay buffer containing 50 mM Hepes (pH 7.0 at 23° C.), 10 mM MgCl2, 2 mM EGTA, 1 μg/ml aprotinin, 1 μg/ml leupeptin, 1 μg/ml pepstatin A, 0.005% Triton X-100, 10 U/ml bacitracin and 0.1% ovalbumin. The suspension was centrifuged at 32000×g for 30 minutes. The resulting supernatant was discarded and the pellet resuspended by homogenization in assay buffer and centrifuged again. The supernatant was discarded and the pellet resuspended by homogenization in assay buffer and aliquots frozen at −70° C. On the day of the experiment aliquots were thawed quickly and 25 μg/well added to 150 pM ^125I-ovine-CRF and drugs in a total volume of 100 μl assay buffer. The assay mixture was incubated for 2 hr at 21° C. Bound and free radioligand were then separated by rapid filtration using glass fiber filters (Whatman GF/B, pretreated with 0.3% PEI) on a Brandel Cell Harvester. […] Filters were then counted in a Wallac Wizard gamma counter. IC50 values were determined in a five point (five drug concentrations) competition assay using non-linear regression by Microsoft Excel-fit. […]

The target in the next test is T2, CRF2 receptor (Sus scrofa, UniProt B8Q4Z9).
T2 construct: the CRF2 receptors endogenously expressed on the porcine choroid plexus membrane; from tissue; host or cells: porcine choroid plexus
T2 sequence (B8Q4Z9 1-411): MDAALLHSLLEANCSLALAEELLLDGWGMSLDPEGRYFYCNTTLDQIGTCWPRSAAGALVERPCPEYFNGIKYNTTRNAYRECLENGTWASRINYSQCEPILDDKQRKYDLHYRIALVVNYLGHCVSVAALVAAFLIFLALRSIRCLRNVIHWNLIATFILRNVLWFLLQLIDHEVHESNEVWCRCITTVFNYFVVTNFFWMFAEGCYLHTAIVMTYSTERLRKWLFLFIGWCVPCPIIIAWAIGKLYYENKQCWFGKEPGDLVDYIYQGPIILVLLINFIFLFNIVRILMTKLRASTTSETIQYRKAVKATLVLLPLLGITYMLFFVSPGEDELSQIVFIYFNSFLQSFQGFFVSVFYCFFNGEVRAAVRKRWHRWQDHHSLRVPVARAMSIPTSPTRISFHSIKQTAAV
Nature of the test: CRF2 binding assay, 125I-sauvagine competition, porcine choroid plexus membrane. The note with it: n=3; read-out: IC50 at CRF2 receptors of porcine choroid plexus membrane. As to the method: CRF2 Binding Assay. Frozen porcine choroid plexus was thawed rapidly in assay buffer containing 50 mM Hopes (pH 7.0 at 23° C.), 10 mM MgCl2, 2 mM EGTA, 1 μg/ml aprotinin, 1 μg/ml leupeptin, 1 μg/ml pepstatin A, 0.005% Triton X-100, 10 U/ml bacitracin and 0.1% ovalbumin and homogenized. The suspension was centrifuged at 32000×g for 30 minutes. The resulting supernatant was discarded and the pellet resuspended by homogenization in assay buffer and centrifuged again. The supernatant was discarded and the pellet resuspended by homogenization in assay buffer and frozen at −70° C. On the day of the experiment aliquots of the homogenate were thawed quickly and 10 μg/well added to 100 pM ^125I-sauvagine and drugs in a total volume of 100 μl assay buffer. The assay mixture was incubated for 2 hr at 21° C. Bound and free radioligand were then separated by rapid filtration using glass fiber filters (Whatman GF/B, pretreated with 0.3% PEI) on a Brandel Cell Harvester. Filters were then washed multiple times with ice cold wash buffer (PBS w/o Ca^2+ and Mg^2+, 0.01% Triton X-100 (pH 7.0 at 23° C.)). Non-specific binding was defined using 1 μM α-helical CRF (9-41). Filters were then counted in a Wallac Wizard gamma counter. IC50 values were determined in a five point (five drug concentrations) competition assay using non-linear regression by Microsoft Excel-fit.
Binding Results. […]

The next test relates to Male Sprague-Dawley rats. The note with it: previous CRF1 antagonists, literature (McElroy 2002; Lelas 2004); cited from earlier work.

In the case of `COC[C@H](C1CC1)n1cc(C#N)nc(Nc2cc(C)c(OC(F)F)nc2C)c1=O` [(S)-4-(1-cyclopropyl-2-methoxyethyl)-6-(6-(difluoromethoxy)-2,5-dimethylpyridin-3-ylamino)-5-oxo-4,5-dihydropyrazine-2-carbonitrile], the IC50 was 1.81 ± 0.46 nM at human CRF1 receptors and more than 10000 nM on CRF2 receptor.

As for `COCC(COC)Nc1nc(C)nc2c(-c3ccc(Cl)cc3Cl)c(C)nn12` [DMP696], on human CRF1 receptors, the IC50 stood at 1.71 ± 0.53 nM. In the test with Male Sprague-Dawley rats, the “effectiveness in the situational anxiety model” value is “effective”.
